Results published in patent US10221426B2, “Constitutively active PYR/PYL receptor proteins for improving plant stress tolerance” (The Regents of the University of California, priority 2009, dated 2019).

Biological target: T1, PYL4 and HAB1 (Arabidopsis thaliana, UniProt O80920)
T1 construct: vector pHB3; made in house
T1 sequence (O80920 1-207): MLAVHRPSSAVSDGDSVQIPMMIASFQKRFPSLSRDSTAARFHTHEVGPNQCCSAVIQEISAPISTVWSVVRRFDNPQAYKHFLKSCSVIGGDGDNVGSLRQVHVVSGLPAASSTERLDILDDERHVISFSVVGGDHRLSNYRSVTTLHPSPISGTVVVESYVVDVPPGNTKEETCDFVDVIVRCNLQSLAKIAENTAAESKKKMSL
T1 sequence (Q9CAJ0 23-511 partner): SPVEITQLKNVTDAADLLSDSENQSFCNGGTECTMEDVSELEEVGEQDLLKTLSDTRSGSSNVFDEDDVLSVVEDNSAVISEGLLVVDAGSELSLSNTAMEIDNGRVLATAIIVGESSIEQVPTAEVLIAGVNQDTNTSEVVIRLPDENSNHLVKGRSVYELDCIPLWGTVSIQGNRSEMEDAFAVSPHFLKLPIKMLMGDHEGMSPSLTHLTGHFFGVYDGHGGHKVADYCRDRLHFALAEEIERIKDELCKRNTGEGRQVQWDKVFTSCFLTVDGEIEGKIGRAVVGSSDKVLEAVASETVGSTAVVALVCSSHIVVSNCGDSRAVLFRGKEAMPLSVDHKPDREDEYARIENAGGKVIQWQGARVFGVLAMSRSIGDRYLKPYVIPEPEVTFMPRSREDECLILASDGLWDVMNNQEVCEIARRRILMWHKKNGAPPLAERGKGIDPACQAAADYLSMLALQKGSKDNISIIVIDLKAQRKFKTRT
Experiment: In vitro pull down assay of refolded PYL4 with HAB1
Format: binding
Procedure: To explore the functional implications of the PYR1-PP2C interaction, we examined if an ABA response could be reconstituted in vitro. Recombinant GST-HAB1, GST-ABI1 and GST-ABI2 were expressed in E. coli and tested for ligand-dependent interactions with 6×His-PYR1 in pull-down assays. Purified 6×His-PYR1 and GST-HAB1 (20 and 100 μg respectively, 8 μM PYR1 final concentration), were combined in 100 μl TBS containing 10 μM (+)-ABA or 1% DMSO for negative control. The reaction was incubated for 90 minutes at RT and 5 μl of PrepEase (USB) His-tagged protein purification resin was added. The resin and reaction mixture was incubated 30 min at RT with gentle shaking at 5 min intervals. The resin was washed five times with TBS containing 10 μM (+)-ABA. After the final wash, the bound protein was eluted in 20 μl SDS-PAGE buffer, boiled for 5 minutes and centrifuged. 5 μl of eluate was analyzed on SDS-PAGE. For pull-downs with ABI1 and ABI2, crude lysates were used in a similar method, except purified PP2C was replaced with cleared E. coli lysates. The amount of lysate added was determined by SDS-page analysis to yield ˜100 μg PP2C, such that the same stoichiometry was used as in assays using purified proteins.
A PYL4 6×His-tagged (SEQ ID NO:141) protein was constructed using a public pUni clone. This was recombined into the His-tagged expression vector pHB3. […]

CC1=CC(=O)CC(C)(C)[C@@]1(O)/C=C/C(C)=C\C(=O)O [ABA, Abscisic acid]
PYL4 binding to HAB1 in pull down: binds HAB1 in response to ABA
